From patent publication US7589121B2, “Use of furan alkyls for preparing a drug for treating obesity and cosmetically treating overweight” (priority 2004, dated 2009)

Experiments:
[1] = tested on: ME, FAS, ACC (fatty acid synthesis); test: Analysis of mRNAs in the liver (Q-RT-PCR): ME, FAS, ACC; type: in vivo, mice; conditions: TZD
Description: (§1) In the liver, the mRNA expressions of 8 genes were determined in 5 mice of each group using real-time Q-RT-PCR analysis.

[2] = tested on: mice fattened on a high fat/high sucrose diet (HF/HS); test: Weight gain / weight of mice on HF/HS diet; type: in vivo; conditions: curative group; TZD added to HF/HS food
Description: We used adult mice (aged 6 weeks) of masculine gender fattened on a high fat/high sucrose diet (HF/HS). Feeding with the HF/HS diet began on mice aged 6 weeks and continued throughout the period of the study. The study was conducted along 2 axes: • prevention: the product was administered as soon as feeding began with the HF/HS diet; • management (curative): the product was administered 12 weeks after the start of the HF/HS diet. Total treatment time (preventive and curative): 23 weeks.
Each experimental group comprised 10 mice.

PEPCK (target PPARγ) = test: Analysis of mRNAs in the liver (Q-RT-PCR): PEPCK; type: in vivo, mice; conditions: TZD
Description: as §1

CYP7A1 = test: Analysis of mRNAs in the liver (Q-RT-PCR): CYP7A1; type: in vivo, mice; conditions: TZD
Description: as §1

[3] = tested on: PGC-1 (mitochondria biogenesis); test: Analysis of mRNAs in the muscles and BAT: PGC-1; type: in vivo, mice; conditions: TZD
Description: In the brown adipose tissue (BAT) and in the muscles, the mRNA expression of 3 genes was determined in 5 mice of each group by real-time Q-RTR-PCR analysis.

[4] = tested on: GSH-S-transferase (target PXR); test: Analysis of mRNAs in the liver (Q-RT-PCR): GSH-S-transferase; type: in vivo, mice; conditions: TZD
Description: as §1

ACO (target PPARα) = test: Analysis of mRNAs in the liver (Q-RT-PCR): ACO; type: in vivo, mice; conditions: TZD
Description: as §1

CN(CCOc1ccc(CC2SC(=O)NC2=O)cc1)c1ccccn1 (stereo not shown) [TZD, Rosiglitazone]
ME, FAS, ACC (fatty acid synthesis) mRNA, liver [1]: ⇑⇑ | weight loss of overweight mice [2]: did not cause the overweight mice to lose weight | PEPCK (target PPARγ) mRNA, liver (PEPCK (target PPARγ)): ⇑ | CYP7A1 (conversion oxysterol into biliary acids) mRNA, liver (CYP7A1): ⇑⇑ | PGC-1 (mitochondria biogenesis) mRNA, MUSCLE/BAT [3]: ⇑ (muscle) | GSH-S-transferase (target PXR) mRNA, liver [4]: ⇑ | ACO (target PPARα) mRNA, liver (ACO (target PPARα)): ⇑
